Measurements: patent publication US8158636B2, “Compounds and methods for kinase modulation, and indications therefor” (Plexxikon Inc., priority 2008, dated 2012)
pIC50: −log10 of the molar value.

Tests used:
Format in all cases: biochemical
TEC = target: T1, TEC (Homo sapiens, UniProt P42680); test: Kinase activity assay, TEC; details: Table 1l; read-out: activity toward kinase TEC, IC50
T1 sequence (P42680 1-631): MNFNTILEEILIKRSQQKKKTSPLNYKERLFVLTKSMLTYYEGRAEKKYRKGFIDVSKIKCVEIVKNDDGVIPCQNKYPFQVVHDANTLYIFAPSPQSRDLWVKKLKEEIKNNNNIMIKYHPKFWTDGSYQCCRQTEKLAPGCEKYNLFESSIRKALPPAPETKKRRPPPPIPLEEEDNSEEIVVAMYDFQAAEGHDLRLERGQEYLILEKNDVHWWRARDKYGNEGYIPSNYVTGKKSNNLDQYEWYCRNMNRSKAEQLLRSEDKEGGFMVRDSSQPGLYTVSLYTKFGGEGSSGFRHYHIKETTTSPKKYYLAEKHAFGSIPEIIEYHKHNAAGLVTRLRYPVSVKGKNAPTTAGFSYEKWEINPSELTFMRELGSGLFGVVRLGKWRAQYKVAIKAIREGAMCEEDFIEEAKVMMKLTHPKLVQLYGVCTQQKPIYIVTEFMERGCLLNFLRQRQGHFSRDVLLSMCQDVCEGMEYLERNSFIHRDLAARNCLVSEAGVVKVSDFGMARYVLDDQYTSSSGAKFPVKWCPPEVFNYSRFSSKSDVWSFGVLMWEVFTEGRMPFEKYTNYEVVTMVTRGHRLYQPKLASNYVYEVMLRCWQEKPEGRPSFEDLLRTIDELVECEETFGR
Description: (§1) Assays for the activity of kinases, including, but not limited to, Fms, Kit, B-Raf, B-Raf V600E, c-Raf-1, and TrkA are known in the art, for example as described in US Patent Publication Number US20070032519 and U.S. patent application Ser. No. 11/473,347 (see also, PCT publication WO2007002433), the disclosures of which are hereby incorporated by reference with respect to such assays.

B-Raf V600E = B-Raf V600E (Homo sapiens, UniProt P15056, V600E); test: Kinase activity assay, B-Raf V600E; details: Table 1c; read-out: activity toward kinase B-Raf V600E, IC50
Description: as §1

TrkA = TrkA (Homo sapiens, UniProt P04629); test: Kinase activity assay, TrkA; details: Table 1m; read-out: activity toward kinase TrkA, IC50
Description: as §1

A-Raf = target: T2, A-Raf (Homo sapiens, UniProt P10398); test: Kinase activity assay, A-Raf; details: Table 1a; read-out: activity toward kinase A-Raf, IC50
T2 sequence (P10398 1-606): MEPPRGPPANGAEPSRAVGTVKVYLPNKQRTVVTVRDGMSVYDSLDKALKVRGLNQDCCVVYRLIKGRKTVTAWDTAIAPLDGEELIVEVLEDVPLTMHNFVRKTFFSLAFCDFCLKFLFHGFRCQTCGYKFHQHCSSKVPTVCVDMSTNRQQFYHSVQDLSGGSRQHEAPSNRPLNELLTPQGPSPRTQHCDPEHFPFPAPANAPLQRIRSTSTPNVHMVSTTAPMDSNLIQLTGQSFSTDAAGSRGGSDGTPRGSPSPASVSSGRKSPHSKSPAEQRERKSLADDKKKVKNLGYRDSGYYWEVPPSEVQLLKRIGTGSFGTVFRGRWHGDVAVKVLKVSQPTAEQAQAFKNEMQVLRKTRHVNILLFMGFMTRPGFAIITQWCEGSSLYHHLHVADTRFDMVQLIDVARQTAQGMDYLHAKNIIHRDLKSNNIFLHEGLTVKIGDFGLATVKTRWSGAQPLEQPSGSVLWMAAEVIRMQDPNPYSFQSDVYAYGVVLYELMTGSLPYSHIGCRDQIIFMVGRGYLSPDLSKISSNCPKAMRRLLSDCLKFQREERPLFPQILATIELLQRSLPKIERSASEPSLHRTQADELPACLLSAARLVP
Description: as §1

Kit = Kit (Homo sapiens, UniProt P10721); test: Kinase activity assay, Kit; details: Table 1j; read-out: activity toward kinase Kit, IC50
Description: as §1

Flt-3 = target: T3, Flt-3 (Homo sapiens, UniProt P36888); test: Kinase activity assay, Flt-3; details: Table 1g; read-out: activity toward kinase Flt-3, IC50
T3 sequence (P36888 27-993): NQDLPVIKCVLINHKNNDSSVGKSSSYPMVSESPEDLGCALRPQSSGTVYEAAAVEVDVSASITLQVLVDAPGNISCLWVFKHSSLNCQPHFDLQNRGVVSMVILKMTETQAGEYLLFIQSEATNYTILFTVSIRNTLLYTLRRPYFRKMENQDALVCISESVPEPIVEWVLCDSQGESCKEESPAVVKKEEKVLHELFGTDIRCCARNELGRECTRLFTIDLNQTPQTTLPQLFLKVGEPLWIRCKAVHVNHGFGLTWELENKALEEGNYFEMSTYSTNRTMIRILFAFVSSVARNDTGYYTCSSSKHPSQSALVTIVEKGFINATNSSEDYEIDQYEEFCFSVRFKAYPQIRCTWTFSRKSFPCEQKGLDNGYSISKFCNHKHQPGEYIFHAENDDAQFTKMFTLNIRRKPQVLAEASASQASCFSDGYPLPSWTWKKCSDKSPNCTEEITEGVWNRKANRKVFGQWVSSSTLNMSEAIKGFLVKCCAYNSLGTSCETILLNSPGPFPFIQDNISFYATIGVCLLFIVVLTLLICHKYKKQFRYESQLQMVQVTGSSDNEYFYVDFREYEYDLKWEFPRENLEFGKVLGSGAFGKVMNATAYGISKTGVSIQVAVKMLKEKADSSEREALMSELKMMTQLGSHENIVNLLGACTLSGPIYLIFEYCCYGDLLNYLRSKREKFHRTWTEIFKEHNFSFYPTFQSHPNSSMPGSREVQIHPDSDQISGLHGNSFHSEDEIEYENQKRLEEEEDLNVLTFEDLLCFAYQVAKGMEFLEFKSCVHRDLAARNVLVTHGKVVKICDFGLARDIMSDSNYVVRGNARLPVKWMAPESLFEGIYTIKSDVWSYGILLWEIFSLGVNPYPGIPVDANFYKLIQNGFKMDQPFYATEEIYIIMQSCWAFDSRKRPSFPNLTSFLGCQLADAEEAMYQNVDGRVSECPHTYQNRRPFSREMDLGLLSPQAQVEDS
Description: as §1

Fms = Fms (Homo sapiens, UniProt P07333); test: Kinase activity assay, Fms; details: Table 1h; read-out: activity toward kinase Fms, IC50
Description: as §1

Flt-1 = Flt-1 (Homo sapiens, UniProt P17948); test: Kinase activity assay, Flt-1; details: Table 1f; read-out: activity toward kinase Flt-1, IC50
Description: as §1

Src = Src (Homo sapiens, UniProt P12931); test: Kinase activity assay, Src; details: Table 1k; read-out: activity toward kinase Src, IC50
Description: as §1

Kdr = Kdr (Homo sapiens, UniProt P35968); test: Kinase activity assay, Kdr; details: Table 1i; read-out: activity toward kinase Kdr, IC50
Description: as §1

Measured: pIC50

Sequence of Flt-1 (P17948 27-1338): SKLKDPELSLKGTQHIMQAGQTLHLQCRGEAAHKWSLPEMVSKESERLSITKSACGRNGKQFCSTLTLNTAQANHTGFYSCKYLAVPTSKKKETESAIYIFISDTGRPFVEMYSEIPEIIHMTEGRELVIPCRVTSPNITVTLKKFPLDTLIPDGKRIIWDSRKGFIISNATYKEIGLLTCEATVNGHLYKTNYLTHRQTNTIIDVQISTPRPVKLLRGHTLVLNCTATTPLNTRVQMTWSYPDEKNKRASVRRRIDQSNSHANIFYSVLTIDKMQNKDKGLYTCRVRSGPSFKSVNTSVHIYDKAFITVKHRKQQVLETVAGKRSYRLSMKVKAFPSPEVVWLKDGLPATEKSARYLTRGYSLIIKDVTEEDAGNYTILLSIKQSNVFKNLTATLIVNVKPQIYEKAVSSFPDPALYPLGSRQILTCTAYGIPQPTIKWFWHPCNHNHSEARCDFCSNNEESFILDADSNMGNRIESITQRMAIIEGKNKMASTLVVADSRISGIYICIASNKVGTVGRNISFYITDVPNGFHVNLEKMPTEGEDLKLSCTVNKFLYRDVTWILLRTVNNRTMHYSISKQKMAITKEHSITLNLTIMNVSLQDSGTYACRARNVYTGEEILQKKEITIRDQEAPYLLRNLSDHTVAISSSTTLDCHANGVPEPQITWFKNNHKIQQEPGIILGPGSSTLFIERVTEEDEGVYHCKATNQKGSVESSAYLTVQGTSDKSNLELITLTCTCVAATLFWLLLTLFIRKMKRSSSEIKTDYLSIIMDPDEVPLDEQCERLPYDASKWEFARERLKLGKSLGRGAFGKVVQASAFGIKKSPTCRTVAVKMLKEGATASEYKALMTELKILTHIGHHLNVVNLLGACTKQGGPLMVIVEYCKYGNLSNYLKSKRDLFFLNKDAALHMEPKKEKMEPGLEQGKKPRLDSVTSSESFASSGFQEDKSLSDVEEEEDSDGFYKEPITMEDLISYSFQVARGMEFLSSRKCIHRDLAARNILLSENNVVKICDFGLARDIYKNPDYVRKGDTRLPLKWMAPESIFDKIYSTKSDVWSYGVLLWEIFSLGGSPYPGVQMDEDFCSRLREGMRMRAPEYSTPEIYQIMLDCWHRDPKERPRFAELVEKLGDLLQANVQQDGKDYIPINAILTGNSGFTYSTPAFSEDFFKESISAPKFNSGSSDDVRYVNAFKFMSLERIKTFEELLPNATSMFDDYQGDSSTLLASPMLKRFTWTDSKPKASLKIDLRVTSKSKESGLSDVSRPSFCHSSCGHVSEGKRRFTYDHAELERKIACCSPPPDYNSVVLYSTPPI
Sequence of Kit (P10721 26-976): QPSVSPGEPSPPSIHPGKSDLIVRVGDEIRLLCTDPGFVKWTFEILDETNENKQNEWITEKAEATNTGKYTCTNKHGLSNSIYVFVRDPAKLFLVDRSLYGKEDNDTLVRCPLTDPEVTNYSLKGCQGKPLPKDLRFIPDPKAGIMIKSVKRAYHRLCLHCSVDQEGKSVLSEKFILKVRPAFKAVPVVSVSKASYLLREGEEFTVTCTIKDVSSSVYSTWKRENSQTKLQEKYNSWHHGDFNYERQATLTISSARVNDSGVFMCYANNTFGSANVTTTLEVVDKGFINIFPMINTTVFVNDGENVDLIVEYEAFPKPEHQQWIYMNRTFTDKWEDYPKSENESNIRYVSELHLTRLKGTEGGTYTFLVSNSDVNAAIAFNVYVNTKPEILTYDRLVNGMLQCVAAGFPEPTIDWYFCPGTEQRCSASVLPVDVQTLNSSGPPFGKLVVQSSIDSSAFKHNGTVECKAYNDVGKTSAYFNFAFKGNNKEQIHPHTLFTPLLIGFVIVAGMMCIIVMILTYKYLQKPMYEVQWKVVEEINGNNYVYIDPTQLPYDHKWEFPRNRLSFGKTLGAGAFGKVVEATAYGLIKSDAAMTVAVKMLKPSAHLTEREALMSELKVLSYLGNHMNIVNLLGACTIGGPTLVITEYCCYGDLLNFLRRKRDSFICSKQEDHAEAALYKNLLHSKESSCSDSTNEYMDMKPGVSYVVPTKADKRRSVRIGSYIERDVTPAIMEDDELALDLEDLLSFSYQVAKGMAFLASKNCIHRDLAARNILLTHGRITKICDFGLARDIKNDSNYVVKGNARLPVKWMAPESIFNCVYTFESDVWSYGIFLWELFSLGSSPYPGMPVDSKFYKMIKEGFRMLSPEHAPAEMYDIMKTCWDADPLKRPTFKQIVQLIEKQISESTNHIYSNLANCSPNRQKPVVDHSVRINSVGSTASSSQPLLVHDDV
Sequence of B-Raf V600E (P15056 whole entry V600E): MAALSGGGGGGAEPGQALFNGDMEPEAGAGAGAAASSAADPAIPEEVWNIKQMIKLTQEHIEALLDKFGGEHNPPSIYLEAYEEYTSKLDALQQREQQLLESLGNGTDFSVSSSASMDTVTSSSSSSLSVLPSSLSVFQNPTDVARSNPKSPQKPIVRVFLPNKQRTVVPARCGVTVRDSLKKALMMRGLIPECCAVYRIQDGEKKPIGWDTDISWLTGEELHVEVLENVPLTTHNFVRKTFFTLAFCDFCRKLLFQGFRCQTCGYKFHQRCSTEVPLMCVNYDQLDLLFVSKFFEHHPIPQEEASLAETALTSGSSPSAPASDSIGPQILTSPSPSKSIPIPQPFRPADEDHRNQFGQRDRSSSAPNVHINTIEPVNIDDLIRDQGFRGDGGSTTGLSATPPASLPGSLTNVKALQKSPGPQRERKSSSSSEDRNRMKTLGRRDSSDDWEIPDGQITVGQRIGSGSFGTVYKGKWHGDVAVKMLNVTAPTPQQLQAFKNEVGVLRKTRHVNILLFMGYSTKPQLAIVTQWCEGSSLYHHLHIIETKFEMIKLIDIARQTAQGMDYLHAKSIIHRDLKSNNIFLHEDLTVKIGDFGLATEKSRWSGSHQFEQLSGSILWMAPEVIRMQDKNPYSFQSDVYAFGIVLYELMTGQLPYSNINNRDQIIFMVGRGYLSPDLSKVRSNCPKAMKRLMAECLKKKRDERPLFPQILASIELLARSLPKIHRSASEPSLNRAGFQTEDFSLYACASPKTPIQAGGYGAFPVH
Sequence of TrkA (P04629 33-796): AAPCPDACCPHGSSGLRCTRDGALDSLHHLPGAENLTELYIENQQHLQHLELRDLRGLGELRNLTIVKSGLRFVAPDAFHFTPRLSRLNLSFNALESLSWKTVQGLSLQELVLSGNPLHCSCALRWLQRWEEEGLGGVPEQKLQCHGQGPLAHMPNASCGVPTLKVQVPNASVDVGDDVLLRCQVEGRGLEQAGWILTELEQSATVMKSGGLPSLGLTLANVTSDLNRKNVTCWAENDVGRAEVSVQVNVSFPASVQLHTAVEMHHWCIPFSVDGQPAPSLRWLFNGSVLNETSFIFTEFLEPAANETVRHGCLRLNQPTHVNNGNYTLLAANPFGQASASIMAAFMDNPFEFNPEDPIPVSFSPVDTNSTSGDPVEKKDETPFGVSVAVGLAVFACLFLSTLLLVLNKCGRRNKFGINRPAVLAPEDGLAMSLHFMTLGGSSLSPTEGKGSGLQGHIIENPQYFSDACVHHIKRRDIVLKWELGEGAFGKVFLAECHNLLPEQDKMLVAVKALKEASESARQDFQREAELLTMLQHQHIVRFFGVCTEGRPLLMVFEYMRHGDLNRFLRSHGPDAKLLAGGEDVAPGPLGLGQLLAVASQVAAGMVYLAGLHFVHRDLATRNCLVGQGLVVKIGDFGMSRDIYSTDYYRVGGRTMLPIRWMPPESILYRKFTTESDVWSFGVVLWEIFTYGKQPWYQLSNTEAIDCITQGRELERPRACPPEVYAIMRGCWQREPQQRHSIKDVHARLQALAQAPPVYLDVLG
Sequence of Fms (P07333 20-972): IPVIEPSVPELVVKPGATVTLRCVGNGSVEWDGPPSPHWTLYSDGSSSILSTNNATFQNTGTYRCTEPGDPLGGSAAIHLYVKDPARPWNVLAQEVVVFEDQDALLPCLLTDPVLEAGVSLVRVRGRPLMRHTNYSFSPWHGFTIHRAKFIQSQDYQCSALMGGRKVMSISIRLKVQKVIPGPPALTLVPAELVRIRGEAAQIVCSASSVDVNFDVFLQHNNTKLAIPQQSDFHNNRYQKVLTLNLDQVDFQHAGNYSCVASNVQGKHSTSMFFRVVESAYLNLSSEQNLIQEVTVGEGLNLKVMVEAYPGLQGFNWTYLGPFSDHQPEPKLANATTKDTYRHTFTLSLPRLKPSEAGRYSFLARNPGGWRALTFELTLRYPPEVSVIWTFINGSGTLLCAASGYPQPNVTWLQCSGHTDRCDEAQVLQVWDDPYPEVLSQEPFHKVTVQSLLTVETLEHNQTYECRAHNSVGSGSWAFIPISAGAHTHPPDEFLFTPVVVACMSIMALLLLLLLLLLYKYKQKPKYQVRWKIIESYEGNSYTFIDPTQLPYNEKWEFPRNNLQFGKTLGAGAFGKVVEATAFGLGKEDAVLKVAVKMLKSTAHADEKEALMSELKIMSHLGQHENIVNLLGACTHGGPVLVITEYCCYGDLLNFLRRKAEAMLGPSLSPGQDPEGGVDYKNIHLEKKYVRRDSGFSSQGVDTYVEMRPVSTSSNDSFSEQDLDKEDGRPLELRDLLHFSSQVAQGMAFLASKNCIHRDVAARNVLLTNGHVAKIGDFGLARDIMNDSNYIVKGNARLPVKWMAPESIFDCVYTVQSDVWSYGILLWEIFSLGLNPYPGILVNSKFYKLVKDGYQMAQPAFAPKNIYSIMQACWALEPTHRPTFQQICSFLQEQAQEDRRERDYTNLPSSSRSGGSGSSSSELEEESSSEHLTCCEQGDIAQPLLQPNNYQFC

Clc1ccccc1CNc1ccc(Cc2c[nH]c3ncncc23)cn1 [P-0003, (2-Chloro-benzyl)-[5-(7H-pyrrolo[2,3-d]pyrimidin-5-ylmethyl)-pyridin-2-yl]-amine]
not listed: Src | Kdr
≥ 5.00: all other assays above

Fc1nc(NCc2ccc(Cl)cc2)ccc1Cc1c[nH]c2ncncc12 [P-0006, (4-Chloro-benzyl)-[6-fluoro-5-(7H-pyrrolo[2,3-d]pyrimidin-5-ylmethyl)-pyridin-2-yl]-amine]
not listed: TEC
≥ 5.00: all other assays above

Clc1ccc(CNc2ccc(Cc3c[nH]c4ncncc34)cn2)cc1 [P-0001, (4-Chloro-benzyl)-[5-(7H-pyrrolo[2,3-d]pyrimidin-5-ylmethyl)-pyridin-2-yl]-amine]
not listed: Src
≥ 5.00: all other assays above
